Source: ChEMBL document CHEMBL4346688, “Discovery of novel mutant-combating ALK and ROS1 dual inhibitors bearing imidazolidin-2-one moiety with reasonable PK properties” (Eur J Med Chem, 2019)
Activity calls are given as the source filed them. No cut-off for these calls is given here.

Tested on: not listed separately
Assay: AUCinfinity in Sprague-Dawley rat at 10 mg/kg, po by UPLC/MS/MS analysis
Type: ADME, organism-based
Set-up: dose 10 mg/kg, route oral, time infinity
Conditions: in vivo
`COc1cc(N2CCN(CCN(C)C)C2=O)ccc1Nc1ncc(Cl)c(Nc2ccccc2S(=O)(=O)C(C)C)n1` gave an AUC(0-inf) of 4510 ng·h/mL.

Molecular target: T1, ALK tyrosine kinase receptor (Homo sapiens, UniProt Q9UM73)
Assay: Inhibition of ALK phosphorylation in human H2228 cells at 100 uM incubated for 24 hrs by Western blot analysis
Type: cell-based
Conditions: not given
Target sequence in this assay (Q9UM73 19-1620 limits assumed): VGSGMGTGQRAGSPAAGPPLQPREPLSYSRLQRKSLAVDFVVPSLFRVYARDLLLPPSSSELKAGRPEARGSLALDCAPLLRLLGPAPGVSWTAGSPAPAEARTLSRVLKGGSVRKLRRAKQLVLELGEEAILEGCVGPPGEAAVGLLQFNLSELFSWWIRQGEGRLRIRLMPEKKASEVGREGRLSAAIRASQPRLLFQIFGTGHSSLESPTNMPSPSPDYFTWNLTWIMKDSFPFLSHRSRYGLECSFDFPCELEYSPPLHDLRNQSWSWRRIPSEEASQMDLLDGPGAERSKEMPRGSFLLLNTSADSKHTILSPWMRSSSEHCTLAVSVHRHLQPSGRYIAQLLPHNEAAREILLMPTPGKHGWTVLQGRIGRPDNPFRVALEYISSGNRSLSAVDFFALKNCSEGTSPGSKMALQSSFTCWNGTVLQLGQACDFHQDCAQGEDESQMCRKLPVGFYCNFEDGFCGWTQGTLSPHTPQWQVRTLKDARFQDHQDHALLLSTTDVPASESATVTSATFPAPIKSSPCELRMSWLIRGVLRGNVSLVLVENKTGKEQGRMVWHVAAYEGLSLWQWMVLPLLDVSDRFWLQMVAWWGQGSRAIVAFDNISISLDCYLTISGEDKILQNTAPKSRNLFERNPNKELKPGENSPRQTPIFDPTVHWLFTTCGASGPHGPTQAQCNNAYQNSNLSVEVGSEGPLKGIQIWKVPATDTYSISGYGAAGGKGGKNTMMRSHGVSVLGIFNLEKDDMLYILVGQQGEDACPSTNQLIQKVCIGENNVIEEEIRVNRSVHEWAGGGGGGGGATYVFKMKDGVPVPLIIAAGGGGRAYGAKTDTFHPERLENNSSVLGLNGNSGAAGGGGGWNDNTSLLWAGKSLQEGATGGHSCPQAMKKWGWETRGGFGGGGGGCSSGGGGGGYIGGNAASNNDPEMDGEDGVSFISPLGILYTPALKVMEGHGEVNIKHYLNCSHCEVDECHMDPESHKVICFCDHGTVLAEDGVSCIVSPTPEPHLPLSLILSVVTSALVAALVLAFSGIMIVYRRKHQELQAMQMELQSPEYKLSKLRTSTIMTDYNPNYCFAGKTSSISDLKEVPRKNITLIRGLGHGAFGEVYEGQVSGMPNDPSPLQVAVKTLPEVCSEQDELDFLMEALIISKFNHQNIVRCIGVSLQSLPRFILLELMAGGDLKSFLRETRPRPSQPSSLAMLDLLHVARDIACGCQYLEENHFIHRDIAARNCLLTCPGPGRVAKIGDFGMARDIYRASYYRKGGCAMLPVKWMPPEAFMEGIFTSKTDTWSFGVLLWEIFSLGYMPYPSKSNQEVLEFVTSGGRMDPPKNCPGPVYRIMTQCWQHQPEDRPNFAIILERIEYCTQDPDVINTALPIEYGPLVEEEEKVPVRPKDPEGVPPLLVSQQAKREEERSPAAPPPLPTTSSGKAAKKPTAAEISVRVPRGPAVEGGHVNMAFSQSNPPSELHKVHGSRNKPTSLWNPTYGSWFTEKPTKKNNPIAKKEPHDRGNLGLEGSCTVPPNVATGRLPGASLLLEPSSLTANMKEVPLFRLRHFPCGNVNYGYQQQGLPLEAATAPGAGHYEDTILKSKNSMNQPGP
In the case of `COc1cc(N2CCN(CCN(C)C)C2=O)ccc1Nc1ncc(Cl)c(Nc2ccccc2S(=O)(=O)C(C)C)n1`, the inhibition is reported as “Active”.

Tested on: not listed separately
Assay: AUCinfinity in Sprague-Dawley rat at 2 mg/kg, iv by UPLC/MS/MS analysis
Type: ADME, organism-based
Set-up: dose 2 mg/kg, route intravenous, time infinity
Conditions: in vivo
`COc1cc(N2CCN(CCN(C)C)C2=O)ccc1Nc1ncc(Cl)c(Nc2ccccc2S(=O)(=O)C(C)C)n1` showed an AUC of 1965.3 ng·h/mL.

Molecular target: ALK tyrosine kinase receptor (Homo sapiens, UniProt Q9UM73, L1196M)
Assay: not given
Conditions: not given
Compound `COc1cc(N2CCN(CCN(C)C)C2=O)ccc1Nc1ncc(Cl)c(Nc2ccccc2S(=O)(=O)C(C)C)n1` has an IC50 of 0.73 nM.

Tested on: not listed separately
Assay: Tmax in Sprague-Dawley rat at 10 mg/kg, po by UPLC/MS/MS analysis
Type: ADME, organism-based
Conditions: in vivo
Work on `COc1cc(N2CCN(CCN(C)C)C2=O)ccc1Nc1ncc(Cl)c(Nc2ccccc2S(=O)(=O)C(C)C)n1` yielded a Tmax of 5.3 h.

Tested on: A549
Assay: cells
Conditions: Homo sapiens, A549, 72 h
Description: Cytotoxicity against human A549 cells incubated for 72 hrs by MTT assay
Compound `COc1cc(N2CCN(CCN(C)C)C2=O)ccc1Nc1ncc(Cl)c(Nc2ccccc2S(=O)(=O)C(C)C)n1` has an IC50 of over 5000 nM.

Molecular target: Tyrosine-protein kinase JAK2 (Homo sapiens, UniProt O60674)
Sequence (O60674 whole entry, the tested form may be a part): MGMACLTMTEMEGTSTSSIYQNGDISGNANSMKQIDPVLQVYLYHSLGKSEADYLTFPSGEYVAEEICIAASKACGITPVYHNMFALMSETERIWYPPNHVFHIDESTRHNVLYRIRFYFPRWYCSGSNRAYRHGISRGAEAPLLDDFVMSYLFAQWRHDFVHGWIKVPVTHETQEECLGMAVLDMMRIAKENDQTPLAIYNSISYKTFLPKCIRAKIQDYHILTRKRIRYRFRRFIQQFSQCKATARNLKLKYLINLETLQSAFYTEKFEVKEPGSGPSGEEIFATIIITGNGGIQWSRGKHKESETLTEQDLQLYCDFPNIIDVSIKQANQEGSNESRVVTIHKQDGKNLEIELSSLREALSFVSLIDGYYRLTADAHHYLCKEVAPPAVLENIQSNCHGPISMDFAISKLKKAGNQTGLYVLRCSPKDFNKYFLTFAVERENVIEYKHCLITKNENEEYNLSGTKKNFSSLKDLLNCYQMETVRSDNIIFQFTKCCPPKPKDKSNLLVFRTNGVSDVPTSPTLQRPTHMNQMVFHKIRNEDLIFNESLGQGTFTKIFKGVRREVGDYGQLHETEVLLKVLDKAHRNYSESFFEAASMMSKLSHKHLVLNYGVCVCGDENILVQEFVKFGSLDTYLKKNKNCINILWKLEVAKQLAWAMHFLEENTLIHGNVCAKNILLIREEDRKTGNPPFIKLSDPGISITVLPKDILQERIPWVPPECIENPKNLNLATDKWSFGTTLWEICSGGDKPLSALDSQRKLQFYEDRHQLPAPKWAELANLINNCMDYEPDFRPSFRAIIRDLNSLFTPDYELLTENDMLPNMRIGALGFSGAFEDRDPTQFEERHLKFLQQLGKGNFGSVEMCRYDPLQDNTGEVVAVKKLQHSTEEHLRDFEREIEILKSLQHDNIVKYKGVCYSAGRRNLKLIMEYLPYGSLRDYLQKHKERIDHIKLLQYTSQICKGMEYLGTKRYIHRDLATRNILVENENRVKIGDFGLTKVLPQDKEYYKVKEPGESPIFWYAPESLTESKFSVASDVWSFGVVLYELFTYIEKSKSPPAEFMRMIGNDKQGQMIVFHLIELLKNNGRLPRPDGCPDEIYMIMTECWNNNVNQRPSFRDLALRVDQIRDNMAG
Assay: Inhibition of N-terminal GST-tagged human JAK2 catalytic domain (826 to 1132 residues) expressed in Baculovirus expression system using srctide as substrate incubated for 1 hr by mobility shift assay
Conditions: not given
`COc1cc(N2CCN(CCN(C)C)C2=O)ccc1Nc1ncc(Cl)c(Nc2ccccc2S(=O)(=O)C(C)C)n1` showed an IC50 of over 1000 nM.

Tested on: not listed separately
Assay: Oral bioavailability in Sprague-Dawley rat at 10 mg/kg by UPLC/MS/MS analysis
Type: ADME, organism-based
Conditions: in vivo
Work on `COc1cc(N2CCN(CCN(C)C)C2=O)ccc1Nc1ncc(Cl)c(Nc2ccccc2S(=O)(=O)C(C)C)n1` yielded a bioavailability of 23%.

Molecular target: Proto-oncogene tyrosine-protein kinase receptor Ret (Homo sapiens, UniProt P07949)
Assay: Inhibition of N-terminal GST-tagged human RET cytoplasmic domain (658 to 1114 residues) expressed in baculovirus expression system using CSKtide as substrate incubated for 1 hr by mobility shift assay
Conditions: not given
`COc1cc(N2CCN(CCN(C)C)C2=O)ccc1Nc1ncc(Cl)c(Nc2ccccc2S(=O)(=O)C(C)C)n1` gave an IC50 of over 1000 nM.

Molecular target: Fibroblast growth factor receptor (Homo sapiens, UniProt P22607+P11362+P22455+P21802)
Assay: Inhibition of FGFR (unknown origin) incubated for 1 hr by mobility shift assay
Type: protein assay
Conditions: not given
With `COc1cc(N2CCN(CCN(C)C)C2=O)ccc1Nc1ncc(Cl)c(Nc2ccccc2S(=O)(=O)C(C)C)n1` the IC50 was 573 nM.

Molecular target: T1, ALK tyrosine kinase receptor
Assay: not given
Conditions: not given
For `COc1cc(N2CCN(CCN(C)C)C2=O)ccc1Nc1ncc(Cl)c(Nc2ccccc2S(=O)(=O)C(C)C)n1`, the IC50 was 1.2 nM.

Tested on: not listed separately
Assay: AUCt in Sprague-Dawley rat at 10 mg/kg, po by UPLC/MS/MS analysis
Type: ADME, organism-based
Conditions: in vivo
With `COc1cc(N2CCN(CCN(C)C)C2=O)ccc1Nc1ncc(Cl)c(Nc2ccccc2S(=O)(=O)C(C)C)n1` the AUC(0-t) was 3420 ng·h/mL.

Molecular target: T1, ALK tyrosine kinase receptor
Assay: Inhibition of ALK phosphorylation in human H2228 cells incubated for 24 hrs by Western blot analysis
Type: cell-based
Conditions: not given
Target sequence in this assay (Q9UM73 19-1620 limits assumed): as the sequence (Q9UM73 19-1620 limits assumed) above
For `COc1cc(N2CCN(CCN(C)C)C2=O)ccc1Nc1ncc(Cl)c(Nc2ccccc2S(=O)(=O)C(C)C)n1`, the inhibition was “Dose-dependent effect”.

Tested on: KARPAS-299
Assay: cells
Conditions: Homo sapiens, KARPAS-299, 72 h
Description: Cytotoxicity against human KARPAS299 cells incubated for 72 hrs by MTT assay
Compound `COc1cc(N2CCN(CCN(C)C)C2=O)ccc1Nc1ncc(Cl)c(Nc2ccccc2S(=O)(=O)C(C)C)n1` has an IC50 of 14 nM.

Tested on: NCI-H2228
Assay: cells
Conditions: Homo sapiens, NCI-H2228, 72 h
Description: Cytotoxicity against human NCI-H2228 cells incubated for 72 hrs by MTT assay
Work on `COc1cc(N2CCN(CCN(C)C)C2=O)ccc1Nc1ncc(Cl)c(Nc2ccccc2S(=O)(=O)C(C)C)n1` yielded an IC50 of 37 nM.

Tested on: not listed separately
Assay: Inhibition of PI3K (unknown origin) incubated for 1 hr by mobility shift assay
Set-up: species or system Homo sapiens
Conditions: not given
For `COc1cc(N2CCN(CCN(C)C)C2=O)ccc1Nc1ncc(Cl)c(Nc2ccccc2S(=O)(=O)C(C)C)n1`, the IC50 was over 1000 nM.

Tested on: HCC78
Assay: cells
Conditions: Homo sapiens, HCC78, 72 h
Description: Cytotoxicity against human HCC78 cells incubated for 72 hrs by MTT assay
In the case of `COc1cc(N2CCN(CCN(C)C)C2=O)ccc1Nc1ncc(Cl)c(Nc2ccccc2S(=O)(=O)C(C)C)n1`, the IC50 is reported as 29 nM.

Molecular target: T2, Proto-oncogene tyrosine-protein kinase ROS (Homo sapiens, UniProt P08922)
T2 sequence (P08922 whole entry): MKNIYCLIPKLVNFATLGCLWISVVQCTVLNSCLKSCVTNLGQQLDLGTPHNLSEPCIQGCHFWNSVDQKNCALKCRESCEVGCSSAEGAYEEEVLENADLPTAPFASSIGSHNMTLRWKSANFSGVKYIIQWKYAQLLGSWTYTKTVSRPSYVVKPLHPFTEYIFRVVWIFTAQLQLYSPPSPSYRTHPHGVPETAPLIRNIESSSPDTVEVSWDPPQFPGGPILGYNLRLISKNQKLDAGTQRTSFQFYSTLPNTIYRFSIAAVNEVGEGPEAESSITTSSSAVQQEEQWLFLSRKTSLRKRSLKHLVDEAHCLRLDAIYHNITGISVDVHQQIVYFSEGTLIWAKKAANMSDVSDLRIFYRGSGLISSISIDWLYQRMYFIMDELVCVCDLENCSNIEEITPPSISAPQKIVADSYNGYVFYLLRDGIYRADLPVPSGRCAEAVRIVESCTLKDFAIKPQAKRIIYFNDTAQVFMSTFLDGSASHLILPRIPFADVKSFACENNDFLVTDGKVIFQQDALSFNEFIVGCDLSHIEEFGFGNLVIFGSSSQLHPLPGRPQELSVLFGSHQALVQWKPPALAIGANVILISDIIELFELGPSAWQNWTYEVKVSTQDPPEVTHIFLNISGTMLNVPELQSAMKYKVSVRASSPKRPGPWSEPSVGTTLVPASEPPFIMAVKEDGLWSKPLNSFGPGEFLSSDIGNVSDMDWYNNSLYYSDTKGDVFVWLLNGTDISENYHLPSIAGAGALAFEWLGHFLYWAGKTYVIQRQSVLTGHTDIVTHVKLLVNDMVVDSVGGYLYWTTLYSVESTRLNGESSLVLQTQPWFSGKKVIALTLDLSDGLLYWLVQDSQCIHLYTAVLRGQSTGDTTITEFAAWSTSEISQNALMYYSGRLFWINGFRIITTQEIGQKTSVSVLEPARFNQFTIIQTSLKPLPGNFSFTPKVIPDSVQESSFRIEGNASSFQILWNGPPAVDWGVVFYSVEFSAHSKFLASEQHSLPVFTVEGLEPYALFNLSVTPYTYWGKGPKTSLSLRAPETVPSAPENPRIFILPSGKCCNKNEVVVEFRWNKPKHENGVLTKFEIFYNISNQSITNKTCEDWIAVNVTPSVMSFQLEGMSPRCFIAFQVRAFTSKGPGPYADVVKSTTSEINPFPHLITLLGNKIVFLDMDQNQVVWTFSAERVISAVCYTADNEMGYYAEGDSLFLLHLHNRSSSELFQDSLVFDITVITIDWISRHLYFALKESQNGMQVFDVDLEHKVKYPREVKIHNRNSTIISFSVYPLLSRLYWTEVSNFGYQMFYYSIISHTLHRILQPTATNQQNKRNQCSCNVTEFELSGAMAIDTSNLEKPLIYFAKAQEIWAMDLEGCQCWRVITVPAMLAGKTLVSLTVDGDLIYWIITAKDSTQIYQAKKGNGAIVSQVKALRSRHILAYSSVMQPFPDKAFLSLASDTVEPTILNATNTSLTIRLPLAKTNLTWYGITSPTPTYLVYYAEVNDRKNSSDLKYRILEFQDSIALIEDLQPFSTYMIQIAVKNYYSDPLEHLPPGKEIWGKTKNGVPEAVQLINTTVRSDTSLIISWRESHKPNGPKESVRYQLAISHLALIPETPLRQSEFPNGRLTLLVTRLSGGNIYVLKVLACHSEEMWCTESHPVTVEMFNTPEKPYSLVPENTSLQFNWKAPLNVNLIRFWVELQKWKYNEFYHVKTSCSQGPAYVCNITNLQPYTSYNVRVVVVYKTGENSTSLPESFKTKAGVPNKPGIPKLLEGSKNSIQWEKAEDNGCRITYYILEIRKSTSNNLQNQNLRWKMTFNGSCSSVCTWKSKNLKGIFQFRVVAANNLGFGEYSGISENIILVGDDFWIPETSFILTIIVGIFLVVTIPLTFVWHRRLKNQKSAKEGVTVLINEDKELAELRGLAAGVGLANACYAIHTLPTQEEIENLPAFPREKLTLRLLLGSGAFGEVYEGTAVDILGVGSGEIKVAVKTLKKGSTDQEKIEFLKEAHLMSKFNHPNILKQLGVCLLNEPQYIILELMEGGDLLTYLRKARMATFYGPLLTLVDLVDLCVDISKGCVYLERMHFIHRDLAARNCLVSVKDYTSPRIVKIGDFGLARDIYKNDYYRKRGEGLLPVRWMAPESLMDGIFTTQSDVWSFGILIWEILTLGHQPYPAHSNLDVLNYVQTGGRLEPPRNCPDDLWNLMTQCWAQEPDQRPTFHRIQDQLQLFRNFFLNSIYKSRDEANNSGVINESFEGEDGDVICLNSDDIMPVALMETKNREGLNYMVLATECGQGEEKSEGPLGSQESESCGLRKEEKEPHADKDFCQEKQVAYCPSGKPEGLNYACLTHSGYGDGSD
Assay: not given
Conditions: not given
Compound `COc1cc(N2CCN(CCN(C)C)C2=O)ccc1Nc1ncc(Cl)c(Nc2ccccc2S(=O)(=O)C(C)C)n1` has an IC50 of 0.43 nM.

Tested on: BaF3
Assay: cells
Conditions: Mus musculus, BaF3, 72 h
Description: Cytotoxicity against mouse BA/F3 cells incubated for 72 hrs by MTT assay
In the case of `COc1cc(N2CCN(CCN(C)C)C2=O)ccc1Nc1ncc(Cl)c(Nc2ccccc2S(=O)(=O)C(C)C)n1`, the IC50 is reported as 3130 nM.

Tested on: not listed separately
Assay: Half life in Sprague-Dawley rat at 2 mg/kg, iv by UPLC/MS/MS analysis
Type: ADME, organism-based
Conditions: in vivo
With `COc1cc(N2CCN(CCN(C)C)C2=O)ccc1Nc1ncc(Cl)c(Nc2ccccc2S(=O)(=O)C(C)C)n1` the half-life was 6.9 h.

Tested on: not listed separately
Assay: Volume of distribution in Sprague-Dawley rat at 2 mg/kg, iv by UPLC/MS/MS analysis
Type: ADME, organism-based
Conditions: in vivo
In the case of `COc1cc(N2CCN(CCN(C)C)C2=O)ccc1Nc1ncc(Cl)c(Nc2ccccc2S(=O)(=O)C(C)C)n1`, the Vd is reported as 9.93 L/kg.

Tested on: not listed separately
Assay: in vivo
Conditions: Sprague-Dawley, rat, po, 10 mg/kg
For `COc1cc(N2CCN(CCN(C)C)C2=O)ccc1Nc1ncc(Cl)c(Nc2ccccc2S(=O)(=O)C(C)C)n1`, the Cmax was 297 ng/mL.

Molecular target: Epidermal growth factor receptor (Homo sapiens, UniProt P00533)
Assay: not given
Conditions: not given
For `COc1cc(N2CCN(CCN(C)C)C2=O)ccc1Nc1ncc(Cl)c(Nc2ccccc2S(=O)(=O)C(C)C)n1`, the IC50 was over 1000 nM.

Molecular target: Hepatocyte growth factor receptor (Homo sapiens, UniProt P08581)
Assay: Inhibition of N-terminal GST-tagged human c-MET cytoplasmic domain (956 to 1390 residues) expressed in Baculovirus expression system using srctide as substrate incubated for 1 hr by mobility shift assay
Conditions: not given
Work on `COc1cc(N2CCN(CCN(C)C)C2=O)ccc1Nc1ncc(Cl)c(Nc2ccccc2S(=O)(=O)C(C)C)n1` yielded an IC50 of 213 nM.

Molecular target: T2, Proto-oncogene tyrosine-protein kinase ROS
Assay: not given
Conditions: not given
Remark: another data set of the same source
Compound `COc1cc(N2CCN(CCN(C)C)C2=O)ccc1Nc1ncc(Cl)c(Nc2ccccc2S(=O)(=O)C(C)C)n1` has a Ratio IC50 of 7.

Molecular target: Tyrosine-protein kinase BTK (Homo sapiens, UniProt Q06187)
Assay: Inhibition of N-terminal GST-tagged full length human BTK (2 to 659 residues) expressed in Baculovirus expression system using srctide as substrate incubated for 1 hr by mobility shift assay
Conditions: not given
With `COc1cc(N2CCN(CCN(C)C)C2=O)ccc1Nc1ncc(Cl)c(Nc2ccccc2S(=O)(=O)C(C)C)n1` the IC50 was over 1000 nM.

Tested on: not listed separately
Assay: Biovailability in Sprague-Dawley rat at 2 mg/kg, iv by UPLC/MS/MS analysis
Type: ADME, organism-based
Conditions: in vivo
With `COc1cc(N2CCN(CCN(C)C)C2=O)ccc1Nc1ncc(Cl)c(Nc2ccccc2S(=O)(=O)C(C)C)n1` the F was 100%.

Tested on: not listed separately
Assay: Half life in Sprague-Dawley rat at 10 mg/kg, po by UPLC/MS/MS analysis
Type: ADME, organism-based
Conditions: in vivo
For `COc1cc(N2CCN(CCN(C)C)C2=O)ccc1Nc1ncc(Cl)c(Nc2ccccc2S(=O)(=O)C(C)C)n1`, the half-life was 7.4 h.

Species: Homo sapiens
Assay: Selectivity index, ratio of IC50 for N-terminal GST-tagged full length human CDK4 (1 to 303 residues) to IC50 for N-terminal GST-tagged human ALK cytoplasmic domain (1058 to 1620 residues)
Conditions: not given
`COc1cc(N2CCN(CCN(C)C)C2=O)ccc1Nc1ncc(Cl)c(Nc2ccccc2S(=O)(=O)C(C)C)n1` showed a Ratio IC50 of 348.

Tested on: ALK tyrosine kinase receptor (Homo sapiens), Q9UM73 [G1202R]
Assay: Potency index, ratio of IC50 for ceritinib to IC50 for test compound for inhibition of N-terminal GST-tagged human ALK G1202R mutant cytoplasmic domain (1058 to 1620 residues) expressed in baculovirus expression system using srctide as substrate incubated for 1 hr by mobility shift assay
Conditions: not given
`COc1cc(N2CCN(CCN(C)C)C2=O)ccc1Nc1ncc(Cl)c(Nc2ccccc2S(=O)(=O)C(C)C)n1` gave a Ratio IC50 of 30.

Tested on: not listed separately
Assay: AUCt in Sprague-Dawley rat at 2 mg/kg, iv by UPLC/MS/MS analysis
Type: ADME, organism-based
Conditions: in vivo
For `COc1cc(N2CCN(CCN(C)C)C2=O)ccc1Nc1ncc(Cl)c(Nc2ccccc2S(=O)(=O)C(C)C)n1`, the AUC(0-t) was 1690 ng·h/mL.

Molecular target: Cyclin-dependent kinase 4 (Homo sapiens, UniProt P11802)
Assay: Inhibition of N-terminal GST-tagged full length human CDK4 (1 to 303 residues) expressed in Baculovirus expression system using DYRKtide F as substrate incubated for 1 hr by mobility shift assay
Conditions: not given
`COc1cc(N2CCN(CCN(C)C)C2=O)ccc1Nc1ncc(Cl)c(Nc2ccccc2S(=O)(=O)C(C)C)n1` showed an IC50 of 417 nM.

Tested on: A549
Assay: cells
Conditions: Homo sapiens, A549, 72 h
Remark: another data set of the same source
`COc1cc(N2CCN(CCN(C)C)C2=O)ccc1Nc1ncc(Cl)c(Nc2ccccc2S(=O)(=O)C(C)C)n1` gave an IC50 of 73 nM.

Molecular target: Insulin-like growth factor 1 receptor (Homo sapiens, UniProt P08069)
Assay: Inhibition of N-terminal GST-tagged human IGF1R cytoplasmic domain (959 to 1367 residues) expressed in baculovirus expression system using IRS1 as substrate incubated for 1 hr by mobility shift assay
Conditions: not given
Work on `COc1cc(N2CCN(CCN(C)C)C2=O)ccc1Nc1ncc(Cl)c(Nc2ccccc2S(=O)(=O)C(C)C)n1` yielded an IC50 of 109 nM.

Species: Homo sapiens
Assay: Selectivity index, ratio of IC50 for N-terminal GST-tagged human IGF1R cytoplasmic domain (959 to 1367 residues) to IC50 for N-terminal GST-tagged human ALK cytoplasmic domain (1058 to 1620 residues)
Conditions: not given
Work on `COc1cc(N2CCN(CCN(C)C)C2=O)ccc1Nc1ncc(Cl)c(Nc2ccccc2S(=O)(=O)C(C)C)n1` yielded a Ratio IC50 of 91.

Species: Homo sapiens
Assay: Selectivity index, ratio of IC50 for FGFR (unknown origin) to IC50 for N-terminal GST-tagged human ALK cytoplasmic domain (1058 to 1620 residues)
Conditions: not given
For `COc1cc(N2CCN(CCN(C)C)C2=O)ccc1Nc1ncc(Cl)c(Nc2ccccc2S(=O)(=O)C(C)C)n1`, the Ratio IC50 was 477.

Species: Homo sapiens
Assay: Selectivity index, ratio of IC50 for N-terminal GST-tagged human c-MET cytoplasmic domain (956 to 1390 residues) to IC50 for N-terminal GST-tagged human ALK cytoplasmic domain (1058 to 1620 residues)
Conditions: not given
`COc1cc(N2CCN(CCN(C)C)C2=O)ccc1Nc1ncc(Cl)c(Nc2ccccc2S(=O)(=O)C(C)C)n1` showed a Ratio IC50 of 178.

Tested on: BaF3
Assay: cells
Conditions: Mus musculus, BaF3, 72 h
Remark: another data set of the same source
`COc1cc(N2CCN(CCN(C)C)C2=O)ccc1Nc1ncc(Cl)c(Nc2ccccc2S(=O)(=O)C(C)C)n1` gave an IC50 of 34 nM.

Tested on: not listed separately
Assay: Cmax in Sprague-Dawley rat at 2 mg/kg, iv by UPLC/MS/MS analysis
Type: ADME, organism-based
Set-up: dose 2 mg/kg, route intravenous
Conditions: in vivo
In the case of `COc1cc(N2CCN(CCN(C)C)C2=O)ccc1Nc1ncc(Cl)c(Nc2ccccc2S(=O)(=O)C(C)C)n1`, the Cmax is reported as 252 ng/mL.

Molecular target: ALK tyrosine kinase receptor (Homo sapiens, UniProt Q9UM73, G1202R)
Sequence (Q9UM73 19-1620 G1202R limits assumed): as the sequence (Q9UM73 19-1620 limits assumed) above, with G1184R counted along it
Assay: not given
Conditions: not given
Work on `COc1cc(N2CCN(CCN(C)C)C2=O)ccc1Nc1ncc(Cl)c(Nc2ccccc2S(=O)(=O)C(C)C)n1` yielded an IC50 of 6.7 nM.
